# Results taken from patent publication US20230105212A1, “BIPHENYL DERIVATIVE INHIBITOR, PREPARATION METHOD THEREFOR AND USE THEREOF” (SHANGHAI HANSOH BIOMEDICAL CO., LTD., priority 2020, published 2023).
# Assays:
# human PD-1/PD-L1 binding = molecular target: T1, human PD-1/PD-L1 binding (Homo sapiens, UniProt Q9NZQ7); experiment: Inhibition of human PD-1/PD-L1 binding (TR-FRET/HTRF); settings: TR-FRET, PD-L1-His and PD-1-Fc; read-out: PD-1/PD-L1 binding IC50
# T1 construct: PD-L1-His protein (19 to 238 amino acids) (Abcam #ab167713); purchased Abcam (PD-L1-His); R&D (PD-1-Fc) ab167713; 1086-PD
# Summary of the method: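 PD-L1-His (aa 19–238, diluted to 10 nM) and PD-1-Fc (aa 25–167, diluted to 20 nM) incubated with compounds (10 μM or 1 μM top, 3-fold, 11 doses) 60 min at room temperature, then anti-6HIS Eu cryptate/anti-human IgG-XL665 added for 3 h RT or overnight 4 °C. HTRF 665/620 nm ratio gave inhibition and IC50.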
# [1] = molecular target: T2, PD-L1 protein on the surface of MC38-hPDL1 tumor cells (Homo sapiens, UniProt Q9NZQ7); experiment: Induction of endocytosis of PD-L1 on the surface of tumor cells (flow cytometry); format: cell-based; settings: 16 hours incubation; for Emax: MC38-hPDL1 cells, read-out: MC38 maximum endocytosis rate; for IC50: inducing endocytosis of PD-L1, MC38-hPDL1 cells, read-out: MC38 IC50
# T2 construct: expressed in transfected cells; host or cells: MC38-hPDL1 (mouse colon cancer cells)
# Summary of the method: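 IC50 comes from nonlinear fits of endocytosis rate, calculated from the loss of surface PE-anti-CD274 flow signal relative to vehicle. Cells were MC38 mouse colon cancer cells engineered to express high human PD-L1. Compound exposure lasted 16 h at 37 °C, 5% CO2.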
# [2] = test system: CHO-PDL1/Jurkat-PD1 cell pathway; experiment: Inhibition of CHO-PDL1/Jurkat-PD1 cell pathway (NFAT luciferase reporter); format: cell-based; settings: for EC50: 6 hours incubation, luciferase signal; for maximal fold induction: relative to the signal value of the non-dosed group, read-out: Maximum induction fold
# Procedure: Test Embodiment 3. Inhibitory Effect of the Compounds of the Present Disclosure on CHO-PDL1/Jurkat-PD1 Cell Pathway
# Experimental purpose: The purpose of this test embodiment was to test the inhibitory effect of compounds on the CHO-PDL1/Jurkat-PD1 cell pathway.
# Experimental method: Two stably transfected cell lines were included in this experiment, CHO-K1 cells stably transfected with PD-L1 and Jurkat cells stably transfected with PD-1 and NFAT luciferase reporter genes. Compounds were incubated with the two cell lines. Then, due to the inhibitory effect on the PD-1/PD-L1 pathway, the activation degree of Jurkat cells changed, so that the level of the reporter gene NFAT in the downstream of Jurkat cells changed, and the level of NFAT was characterized by detecting the signal value of luciferase, so that the inhibitory effect of the test compound on CHO-PDL1/Jurkat-PD1 pathway was characterized.
# CHO-PDL1 cells (Promega, #J1252) were cultured to a suitable cell density. After digestion, the cells were resuspended by complete medium to become a suitable density of cell suspension. The cell suspension was plated 100 μL per well on a 96-well plate (Corning, #3610), and placed in a 37° C., 5% CO2 incubator and incubated overnight, and assay medium (RPMI 1640+2% FBS, RPMI 1640 Cat. No.: Gibco, #22400089, FBS Cat. No.: Gibco, #10091148) was used to prepare compound solutions of different concentrations. NFAT-luc2/PD1 Jurkat cells (Promega, #J1252) were collected and resuspended to the appropriate cell density using assay medium. The supernatant of the CHO-PDL1 cell culture plate was aspirated, and 40 μL of the prepared compound solution and 40 μL of resuspended NFAT-luc2/PD1 Jurkat cells were added, and incubated in a 5% CO2 incubator at 37° C. for 6 hours, and the cell plate was taken out, then 40 μL of One-Glo reagent (Promega, #E6120) was added to each well, shaked and mixed well, incubated in the dark at room temperature for 10 minutes, then put into a microplate reader and the luminescence program was used to read the luminescence value of the cell plate.
# The EC50 value was fitted according to the compound concentration and the luminescence signal value, and the maximum induction fold of each compound relative to the signal value of the non-dosed group was calculated, as shown in Table 3.
# human PD-L1 protein = molecular target: T3, human PD-L1 protein (Homo sapiens, UniProt Q9NZQ7); experiment: Thermal shift: melting temperature of PD-L1 protein; format: binding; settings: compound 10 μM, PD-L1 protein 2 μM, Tm minus DMSO vehicle control; read-out: ΔTm (° C.)
# T3 construct: purchased Acro Biosystems PD1-H5229
# Summary of the method: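 Human PD-L1 at 2 μM final was tested in […], 150 mM NaCl with SYPRO Orange, heated 25→95 °C at 0.03 °C/s in a PCR melt-curve run. Tm was taken per treatment; ΔTm is the shift relative to DMSO vehicle.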
# [3] = Pharmacokinetics test in Balb/C mice; format: in vivo; settings: male, mouse, po, p.o. 5 mg/kg, plasma
# Procedure: Test Embodiment 6. Pharmacokinetics Test in Balb/C Mice
# Taking Balb/C mice as the test animals, the pharmacokinetic behavior in the plasma of mice of the following compound embodiments was studied when orally administered at a dose of 5 mg/kg.
# Balb/C Mouse 6/embodiment, male, Shanghai Jisijie Laboratory Animal Co., Ltd., animal production license number (SCXK (Shanghai) 2013-0006 No. 311620400001794).
# 0.5% HPMC (1% Tween 80), dissolved by sonication, to prepare a clear solution or a homogeneous suspension.
# Balb/C mice, male; p.o. after overnight fasting, respectively, at a dose of 5 mg/kg, administered in a volume of 10 mL/kg.
# Before and after administration of mice, at 0, 0.5, 1, 2, 4, 6, 8 and 24 hours, 0.1 mL of blood was collected from the orbit, placed in an EDTA-K2 test tube, and centrifuged at 6000 rpm at 4° C. for 6 min to separate the plasma, stored at −80° C.
# 1) 40 μL of plasma samples were added to 160 μL of acetonitrile for precipitation, mixed and centrifuged at 3500×g for 5 to 20 minutes.
# 2) 100 μL of the supernatant solution after treatment was taken for LC/MS/MS to analyze the concentration of the compounds to be tested.
# 2.6 Liquid Phase Analysis • Liquid phase condition: Shimadzu LC-20AD pump • MS conditions: AB Sciex API 4000 Mass Spectrometer • Chromatographic column: phenomenex Gemiu 5 μm C18 50×4.6 mm • Mobile phase: A solution was aqueous 0.1% formic acid solution, B solution was acetonitrile • Flow rate: 0.8 mL/min • Elution time: 0 to 4.0 minutes, the eluent was as follows:
# The main parameters of pharmacokinetics were calculated with WinNonlin 8.2, and the results of the mice pharmacokinetic experiments were shown in the following table: […]
# T2 sequence (Q9NZQ7 19-290): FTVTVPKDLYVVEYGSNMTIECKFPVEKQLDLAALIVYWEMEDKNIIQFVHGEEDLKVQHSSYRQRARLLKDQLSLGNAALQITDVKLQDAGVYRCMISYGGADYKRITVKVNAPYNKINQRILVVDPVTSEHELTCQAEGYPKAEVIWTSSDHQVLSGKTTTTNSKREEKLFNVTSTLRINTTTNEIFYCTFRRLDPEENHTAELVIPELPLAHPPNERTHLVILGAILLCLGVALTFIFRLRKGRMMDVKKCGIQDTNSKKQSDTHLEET
# T1 sequence (Q9NZQ7 19-238): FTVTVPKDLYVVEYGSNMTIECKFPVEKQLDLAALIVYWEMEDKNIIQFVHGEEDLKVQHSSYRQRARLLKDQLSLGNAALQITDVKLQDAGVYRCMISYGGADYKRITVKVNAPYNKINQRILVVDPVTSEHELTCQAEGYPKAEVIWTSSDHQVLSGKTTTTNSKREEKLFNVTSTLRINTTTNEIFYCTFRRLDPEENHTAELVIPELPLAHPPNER
# T3 sequence (Q9NZQ7 19-238 limits assumed): as the sequence (Q9NZQ7 19-238) above
IC50 (human PD-1/PD-L1 binding) [nM],Emax [1] [%],IC50 [1] [nM],ΔTm at 10 µM (human PD-L1 protein) [°C],MRT inf ([3]; read-out: Average residence time MRT0−∞) [h],AUC(0-t) ([3]; read-out: Curve area AUC0−t) [ng·h/mL],Cmax ([3]; read-out: Drug concentration in plasma Cmax) [ng/mL],half-life ([3]; read-out: Half life t1/2 (converted)) [h],Tmax ([3]; read-out: Peak time tmax) [h],SMILES,EC50 [2] [nM],maximal fold induction [2]
1.5,94,5.1,–,–,–,–,–,–,"COc1cc(-c2cccc(-c3cccc(NC(=O)c4nc5c(n4C)CCN(C)C5)c3Cl)c2C)ncc1CNC[C@@H]1CCC(=O)N1 [Embodiment 58, (S)—N-(2-Chloro-3′-(4-methoxy-5-((((5-carbonylpyrrolidin-2-yl)methyl)amino)methyl)pyridin-2-yl)-2′-methyl-[1,1′-biphenyl]-3-yl)-1,5-dimethyl-4,5,6,7-tetrahydro-1H-imidazo[4,5-c]pyridine-2-carboxamide]",99,3.5
–,93,1.1,–,–,–,–,–,–,"COc1cc(C(=O)Nc2cccc(-c3cccc(NC(=O)c4nc5c(n4C)CCN(C)C5)c3Cl)c2C)ncc1CNc1ccnc(C)c1F [Embodiment 6, N-(2-Chloro-3′-(5-(((3-fluoro-2-methylpyridin-4-yl)amino)methyl)-4-methoxypicolinamido)-2′-methyl-[1,1′-biphenyl]-3-yl)-1,5-dimethyl-4,5,6,7-tetrahydro-1H-imidazo[4,5-c]pyridine-2-carboxamide]",60,3.3
2,97,1.4,–,–,–,–,–,–,"COc1cc(C(=O)Nc2cccc(-c3cccc(NC(=O)c4nc5c(n4C)CCN(C)C5)c3Cl)c2C)ncc1CNCCNC(C)=O [Embodiment 40, N-(3′-(5-(((2-Acetylaminoethyl)amino)methyl)-4-methoxypicolinamido)-2-chloro-2′-methyl-[1,1′-biphenyl]-3-yl)-1,5-dimethyl-4,5,6,7-tetrahydro-1H-imidazo[4,5-c]pyridine-2-carboxamide]",75,4
1.5,97,0.6,–,–,–,–,–,–,"COc1cc(C(=O)Nc2cccc(-c3cccc(NC(=O)c4nc5c(n4C)CCN(C)C5)c3Cl)c2C)ncc1CNCCO [Embodiment 37, N-(2-Chloro-3′-(5-(((2-hydroxyethyl)amino)methyl)-4-methoxypicolinamido)-2′-methyl-[1,1′-biphenyl]-3-yl)-1,5-dimethyl-4,5,6,7-tetrahydro-1H-imidazo[4,5-c]pyridine-2-carboxamide]",63,4.8
–,97,1.2,24.3,21.6,629,55,15.2,2,"COc1nc(-c2cccc(-c3cccc(NC(=O)c4nc5c(n4C)CCN(C)C5)c3Cl)c2Cl)ccc1CN[C@@H]1CCCC[C@@H]1O [Embodiment 176, N-(2,2′-Dichloro-3′-(5-((((1R,2S)-2-hydroxycyclohexyl)amino)methyl)-6-methoxypyridin-2-yl)-[1,1′-biphenyl]-3-yl)-1,5-dimethyl-4,5,6,7-tetrahydro-1H-imidazo[4,5-c]pyridine-2-carboxamide]",–,–

# The remaining lines, values behind:
SMILES,IC50 (human PD-1/PD-L1 binding) [nM],Emax [1] [%],IC50 [1] [nM],ΔTm at 10 µM (human PD-L1 protein) [°C],MRT inf ([3]; read-out: Average residence time MRT0−∞) [h],AUC(0-t) ([3]; read-out: Curve area AUC0−t) [ng·h/mL],Cmax ([3]; read-out: Drug concentration in plasma Cmax) [ng/mL],half-life ([3]; read-out: Half life t1/2 (converted)) [h],Tmax ([3]; read-out: Peak time tmax) [h],EC50 [2] [nM],maximal fold induction [2]
"COc1nc(-c2cccc(-c3cccc(NC(=O)c4nc5c(n4C4CC4)CCN(C)C5)c3Cl)c2Cl)ccc1CN1CC2(C1)CN(C(C)=O)C2 [Embodiment 243, N-(3′-(5-((6-Acetyl-2,6-diazaspiro[3.3]heptan-2-yl)methyl)-6-methoxypyridin-2-yl)-2,2′-dichloro-[1,1′-biphenyl]-3-yl)-1-cyclopropyl-5-methyl-4,5,6,7-tetrahydro-1H-imidazo[4,5-c]pyridine-2-carboxamide]",8.4,91,–,–,–,–,–,–,–,74,3.1
"COc1cc(NCc2cnc(C(=O)Nc3cccc(-c4cccc(NC(=O)c5nc6c(n5C)CCN(CCO)C6)c4Cl)c3C)cc2OC)ccn1 [Embodiment 72, N-(2-Chloro-3′-(4-methoxy-5-(((2-methoxypyridin-4-yl)amino)methyl)picolinamido)-2′-methyl-[1,1′-biphenyl]-3-yl)-5-(2-hydroxyethyl)-1-methyl-4,5,6,7-tetrahydro-1H-imidazo[4,5-c]pyridine-2-carboxamide]",–,88,6.5,–,–,–,–,–,–,73,3.1
"COc1cc(C(=O)Nc2cccc(-c3cccc(NC(=O)c4nc5c(n4C)CCN(C)C5)c3Cl)c2C)ncc1CN1CC[C@H](F)C1 [Embodiment 26, (S)—N-(2-Chloro-3′-(5-((3-fluoropyrrolidin-1-yl)methyl)-4-methoxypicolinamido)-2′-methyl-[1,1′-biphenyl]-3-yl)-1,5-dimethyl-4,5,6,7-tetrahydro-1H-imidazo[4,5-c]pyridine-2-carboxamide]",–,–,–,–,–,–,–,–,–,90,3.9
"CCN1CCc2c(nc(C(=O)Nc3cccc(-c4cccc(NC(=O)c5cc(OC)c(CNc6ccnc(C)c6F)cn5)c4C)c3Cl)n2C)C1 [Embodiment 78, N-(2-Chloro-3′-(5-(((3-fluoro-2-methylpyridin-4-yl)amino)methyl)-4-methoxypicolinamido)-2′-methyl-[1,1′-biphenyl]-3-yl)-5-ethyl-1-methyl-4,5,6,7-tetrahydro-1H-imidazo[4,5-c]pyridine-2-carboxamide]",–,–,–,–,–,–,–,–,–,68,2.8
"CCn1c(C(=O)Nc2cccc(-c3cccc(-c4ccc(CN5CC6(COC6)C5)c(OC)n4)c3Cl)c2Cl)nc2c1CCN(C)C2 [Embodiment 237, N-(3′-(5-((2-Oxa-6-azaspiro[3.3]heptan-6-yl)methyl)-6-methoxypyridin-2-yl)-2,2′-dichloro-[1,1′-biphenyl]-3-yl)-1-ethyl-5-methyl-4,5,6,7-tetrahydro-1H-imidazo[4,5-c]pyridine-2-carboxamide]",5.2,94,–,11.6,–,–,–,–,–,–,–
